Source: US20260344668A1, “PHENYLPYRAZOLE COMPOUND, AND PLANT DISEASE CONTROL METHOD” (priority 2022, published 2026)

How the values were obtained:
Phakopsora pachyrhizi [1] = test: Test Example 15 Control Test Against Soybean Rust Fungus (spore germination, 96 well titer plate); type: cell-based; details: treatment concentration 1 ppm, 23° C., several hours
Method: (§1) The term of “non-treated well” in Test Example 4, Test Example 5, and Test Example 6 represents a well wherein a test was carried out under the same conditions as those described in each Test Example except for dispensing DMSO instead of a diluted solution with DMSO comprising the Present compound. Also, the term of “non-treated” in Test Examples 15 to 17 represents a test which was carried out under the same conditions as those described in each Test Example except for dispensing DMSO instead of a diluted solution with DMSO comprising the Present compound. Also, the term of “non-treated leaf disk” in Test Example 7 represents a leaf disk wherein a test was carried out under the same conditions as those described in the Test Example except for dispensing DMSO instead of a diluted solution with DMSO comprising the Present compound. Also, the term of “non-treated” in Test Example 10 and Test Example 11 means that a diluted solution with water of a formulation comprising the Present compound was not sprayed.
The Present compound was diluted with DMSO to obtain a diluted solution containing 150 ppm of the compound, and 1 μL of the diluted solution was dispensed into a titer plate (96 well), and thereto was then dispensed 149 μL of an aqueous suspension (1.0×10^4/mL) of spores of Phakopsora pachyrhizi to which spores of Phakopsora pachyrhizi were suspended in advance. This plate was cultured at 23° C. for several hours, and then germinated spores of Phakopsora pachyrhizi were counted. As a result, when the treatment concentration was 1 ppm, the number of germinated spores in each well comprising any one of the Present compound 1, 11, 17, 18, 20, 23, 30, 33, 34, 35, 36, 37, 38, 39, 40, 41, 42, 43, 44, 46, 47, 48, 49, 50, 51, 52, 53, 54, 55, 56, 57, 58, 62, 63, 64, 65, 66, 67, 68, 69, 70, 71, 72, 73, 74, 75, 76, 77, 78, 79, 80, 81, 82, 83, 84, 85, 86, 87, 88, 89, 90, 91, 92, 93, 94, 95, 96, 97, 98, 99, 100, 101, or 102 as the test compound was 50% or less relative to the number of germinated spores in the non-treated well.

Cochliobolus miyabeanus = test: Test Example 6 Control Test Against Rice Brown Spot Fungus (96 well titer plate growth); type: cell-based; details: 1 μL of 150 ppm DMSO solution + 150 μL YB liquid medium, 23° C., 3 days, absorbance at 550 nm
Method: as §1
Each of the Present compound 17, 33, 36, 37, 39, 40, 41, 42, 43, 44, 48, 49, 50, 51, 52, 53, 62, 68, 69, 70, 71, 76, 77, 79, 80, 81, 82, 83, 84, or 97 was diluted with DMSO to obtain a diluted solution containing 150 ppm of each compound, and 1 μL of the diluted solution was dispensed into a titer plate (96 well), and thereto was then dispensed 150 μL of a YB liquid medium to which spores of Cochliobolus miyabeanus were inoculated in advance. This plate was cultured at 23° C. for 3 days, thereby allowing Cochliobolus miyabeanus to undergo proliferation, and the absorbance at 550 nm of each well of the titer plate was then measured to determine a degree of growth of Cochliobolus miyabeanus. As a result, the degree of growth in the well treated with each of the above Present compounds was 50% or less relative to the degree of growth in the non-treated well.

Phakopsora pachyrhizi [2] = test: Test Example 11 Control Test Against Soybean Rust (pot test, spraying before inoculation); type: in vivo; details: 200 ppm foliage spray, soybeans (Kurosengoku), inoculated after 2 to 5 days
Method: as §1
A plastic pot was filled with soil, soybeans (cultivar: Kurosengoku) were seeded thereto, and cultured in a greenhouse for 10 to 14 days. The Present compound 9, 10, 11, 13, 14, 15, 17, 18, 20, 21, 22, 23, 26, 27, 33, 34, 35, 36, 37, 38, 39, 40, 41, 42, 43, 44, 46, 47, 53, 54, 55, 56, 57, 58, 66, 67, 68, 69, 70, 71, 73, 74, 75, 76, 77, 78, 79, 80, 81, 82, 83, 84, 85, 86, 87, 88, 89, 90, 91, 92, 93, 94, 95, 96, 97, 98, 99, 100, 101, or 102 formulated according to the method described in the Formulation Example 1 was mixed with water in such a way that the concentration thereof was 200 ppm, and the resulting mixture was sprayed to foliage of the above soybeans so as to adequately adhere onto the surfaces of leaves of the above soybeans. After spraying the mixture, the soybeans were air-dried. After 2 to 5 days, an aqueous suspension of spores of Phakopsora pachyrhizi was inoculated by spraying to the soybeans. After the inoculation, the soybeans were placed in a greenhouse at 23° C. in daytime and at 20° C. in nighttime under a humid condition for 1 to 2 day(s), then cultured in a greenhouse for 12 days, and then a lesion area was investigated. As a result, the lesion area in the soybeans treated with each of the above Present compound was 30% or less relative to the lesion area in the non-treated soybeans.

[3] = test system: soybean rust fungus (Phakopsora pachyrhizi) having an amino acid substitution of F129L in a mitochondrial cytochrome b protein; test: Test Example 7 Control Test Against Soybean Rust (leaf disk); type: in vivo; details: 200 ppm, 10 μL per soybean leaf disk (cultivar: Kurosengoku), inoculated after 1 day
Method: as §1
A true leaf of a soybean (cultivar: Kurosengoku) was cut into a diameter of 1 cm to prepare each leaf disk. To each well of a 24 well microplate was dispensed 1 mL of an agar medium (agar concentration 1.2%), and then one of said leaf disk was placed on the agar medium in each well. To a mixture of Sorpol (registered trademark) 1200KX (0.5 μL), DMSO (4.5 μL), and xylene (5 μL) was added a DMSO solution (20 μL) comprising a test compound (10000 ppm), and the resulting mixture was mixed. The resulting mixture was diluted with ion exchange water to prepare a mixture comprising a prescribed concentration of the test compound.
The resulting mixture was sprayed into each leaf disk at a ratio of 10 μL per leaf disk. After 1 day, an aqueous suspension of spores of soybean rust fungus (Phakopsora pachyrhizi) having an amino acid substitution of F129L in a mitochondrial cytochrome b protein (1.0×10^5/mL) was inoculated by spraying on each leaf disk. After the inoculation, the microplate was placed into an artificial climate chamber (Lighting: 6 hours, Lights-out: 18 hours, Temperature: 23° C., Humidity: 60%). After 1 day, the leaf disks were air-dried until water droplets on the surfaces of the leaf disks disappeared, and the microplate was placed into the artificial climate chamber again for 12 days. Then, lesion area of soybean rust was investigated. As a result, when the prescribed concentration was 200 ppm, each lesion area of leaf disk treated with any one of the Present compound 9, 10, 11, 13, 14, 15, 16, 17, 18, 20, 32, 33, 34, 35, 36, 37, 38, 39, 40, 42, 43, 44, 47, 48, 49, 50, 51, 52, 53, 55, 56, 57, 58, 62, 63, 64, 65, 66, 67, 68, 69, 70, 71, 73, 74, 75, 76, 77, 78, 79, 80, 81, 82, 83, 84, 85, 86, 87, 88, 89, 90, 91, 92, 93, 94, 95, 96, 97, 98, 99, 100, 101, or 102 as the test compound was 30% or less relative to the lesion area of non-treated leaf disk.

| Compound | number of germinated spores relative to the non-treated well (Phakopsora pachyrhizi [1]) | degree of growth relative to the degree of growth in the non-treated well (Cochliobolus miyabeanus) | lesion area relative to the lesion area in the non-treated soybeans (Phakopsora pachyrhizi [2]) | lesion area relative to the lesion area of non-treated leaf disk [3] |
| --- | --- | --- | --- | --- |
| O=S(=O)(c1cccs1)n1ccc(-c2cc(F)c(Br)c(F)c2)n1 [compound 33] | ≤ 50% | ≤ 50% | ≤ 30% | ≤ 30% |
| O=S(=O)(c1ccoc1)n1ccc(-c2cc(F)c(Br)c(F)c2)n1 [compound 36] | ≤ 50% | ≤ 50% | ≤ 30% | ≤ 30% |
| O=S(=O)(c1ccco1)n1ccc(-c2cc(F)c(Br)c(F)c2)n1 [compound 37] | ≤ 50% | ≤ 50% | ≤ 30% | ≤ 30% |
| O=S(=O)(c1cccs1)n1ccc(-c2ccc(C(F)(F)F)c(F)c2)n1 [compound 39] | ≤ 50% | ≤ 50% | ≤ 30% | ≤ 30% |
| O=S(=O)(c1cccs1)n1ccc(-c2ccc(Br)c(F)c2)n1 [compound 40] | ≤ 50% | ≤ 50% | ≤ 30% | ≤ 30% |
| O=S(=O)(c1cccs1)n1ccc(-c2ccc(C3CC3)cc2)n1 [compound 42] | ≤ 50% | ≤ 50% | ≤ 30% | ≤ 30% |
| Cc1ccc(-c2ccn(S(=O)(=O)c3cccs3)n2)cc1 [compound 43] | ≤ 50% | ≤ 50% | ≤ 30% | ≤ 30% |
| O=[N+]([O-])c1ccc(-c2ccn(S(=O)(=O)c3cccs3)n2)cc1 [compound 44] | ≤ 50% | ≤ 50% | ≤ 30% | ≤ 30% |
| O=S(=O)(c1cccnc1)n1ccc(-c2ccc(Br)c(F)c2)n1 [compound 53] | ≤ 50% | ≤ 50% | ≤ 30% | ≤ 30% |
| O=S(=O)(c1cccs1)n1ccc(-c2ccc3nsnc3c2)n1 [compound 68] | ≤ 50% | ≤ 50% | ≤ 30% | ≤ 30% |
| Cc1ccc(-c2ccn(S(=O)(=O)c3ccco3)n2)cc1F [compound 69] | ≤ 50% | ≤ 50% | ≤ 30% | ≤ 30% |
| Cc1ccc(-c2ccn(S(=O)(=O)c3ccoc3)n2)cc1F [compound 70] | ≤ 50% | ≤ 50% | ≤ 30% | ≤ 30% |
| Cc1ccc(-c2ccn(S(=O)(=O)c3cccs3)n2)cc1F [compound 71] | ≤ 50% | ≤ 50% | ≤ 30% | ≤ 30% |
| Cc1ccc(-c2ccn(S(=O)(=O)c3ccco3)n2)cc1 [compound 76] | ≤ 50% | ≤ 50% | ≤ 30% | ≤ 30% |
| Cc1ccc(-c2ccn(S(=O)(=O)c3ccoc3)n2)cc1 [compound 77] | ≤ 50% | ≤ 50% | ≤ 30% | ≤ 30% |
| O=S(=O)(c1ccco1)n1ccc(-c2ccc(I)cc2)n1 [compound 82] | ≤ 50% | ≤ 50% | ≤ 30% | ≤ 30% |
| O=S(=O)(c1ccoc1)n1ccc(-c2ccc(I)cc2)n1 [compound 83] | ≤ 50% | ≤ 50% | ≤ 30% | ≤ 30% |
